According to patent US9695155B2, “Herbicidal substituted pyrimidinyloxy benzene compounds” (E. I. DU PONT DE NEMOURS AND COMPANY, priority 2013, dated 2017):

What was measured:
large (Lg) crabgrass [1] = assay: Test A preemergence; assay type: in vivo, Digitaria sanguinalis; settings: Digitaria sanguinalis, pre-emergence, 240 h, read-out: Crabgrass, Large plant response rating
Procedure, shortened: (§1)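 Visual 0–100 rating (100 = complete control) taken about 10 d post-treatment relative to untreated checks. Preemergence: directed soil spray on sown loam/sand pots. Postemergence: seedlings 2–10 cm, 1–2 leaf. Non-phytotoxic solvent formulation with surfactant.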

giant foxtail [2] = assay: Test A preemergence; assay type: in vivo, Setaria faberii; settings: Setaria faberi, pre-emergence, 240 h, read-out: Foxtail, Giant plant response rating
Procedure, shortened: as §1

morningglory [3] = assay: Test A preemergence; assay type: in vivo, Ipomoea spp.; settings: Ipomoea, pre-emergence, 240 h, read-out: Morningglory plant response rating
Procedure, shortened: as §1

velvetleaf = assay: Test A preemergence; assay type: in vivo, Abutilon theophrasti; settings: Abutilon theophrasti, pre-emergence, 240 h, read-out: Velvetleaf plant response rating
Procedure, shortened: as §1

morningglory [4] = assay: Test A postemergence; assay type: in vivo, Ipomoea spp.; settings: Ipomoea, post-emergence, 240 h
Procedure, shortened: as §1

blackgrass = assay: Test C postemergence; assay type: in vivo, Alopecurus myosuroides; settings: Alopecurus myosuroides, post-emergence
Source text: (§2) Seeds of plant species selected from blackgrass (Alopecurus myosuroides), Italian ryegrass (Lolium multiflorum), wheat, winter (winter wheat, Triticum aestivum), galium (catchweed bedstraw, Galium aparine), corn (Zea mays), large (Lg) crabgrass (Digitaria sanguinalis), giant foxtail (Setaria faberii), johnsongrass (Sorghum halepense), lambsquarters (Chenopodium album), morningglory (Ipomoea coccinea), yellow nutsedge (Cyperus esculentus), pigweed (Amaranthus retroflexus), ragweed (common ragweed, Ambrosia elatior), soybean (Glycine max), barnyardgrass (Echinochloa crus-galli), oilseed rape (Brassica napus), waterhemp (common waterhemp, Amaranthus rudis), kochia (Kochia scoparia), wild oat (Avena fatua), surinam grass (Brachiaria decumbens), foxtail, green (green foxtail, Setaria viridis), goosegrass (Eleusine indica), bromegrass, downy (downy bromegrass, Bromus tectorum), nightshade (eastern black nightshade, Solanum ptycanthum), cocklebur (common cocklebur, Xanthium strumarium), cupgrass, woolly (woolly cupgrass, Eriochloa villosa), bermudagrass (Cynodon dactylon), sunflower, (common oilseed sunflower, Helianthus annuus), Russian thistle (Salsola kali), and velvetleaf (Abutilon theophrasti) were planted into a blend of loam soil and sand and treated preemergence with test chemicals formulated in a non-phytotoxic solvent mixture which included a surfactant.
(§3) At the same time, plants selected from these crop and weed species and also barley, winter (winter barley, Hordeum vulgare), windgrass (Apera spica-venti), chickweed (common chickweed, Stellaria media), deadnettle (henbit deadnettle, Lamium amplexicaule), and canarygrass (littleseed canarygrass, Phalaris minor) were planted in pots containing Redi-Earth® planting medium (Scotts Company, 14111 Scottslawn Road, Marysville, Ohio 43041) comprising spaghnum peat moss, vermiculite, wetting agent and starter nutrients and treated with postemergence applications of test chemicals formulated in the same manner. Plants ranged in height from 2 to 18 cm (1- to 4-leaf stage) for postemergence treatments. Treated plants and controls were maintained in a greenhouse for 13 to 15 days, after which time all species were compared to controls and visually evaluated. Plant response ratings, summarized in Table C, are based on a scale of 0 to 100 where 0 is no effect and 100 is complete control. A dash (-) response means no test result.

Italian ryegrass = assay: Test C postemergence; assay type: in vivo, Lolium multiflorum; settings: Lolium multiflorum, post-emergence
Source text: as §2, §3

corn = assay: Test C postemergence; assay type: in vivo, Zea mays; settings: Zea mays, post-emergence
Source text: as §2, §3

large (Lg) crabgrass [5] = assay: Test C postemergence; assay type: in vivo, Digitaria sanguinalis; settings: Digitaria sanguinalis, post-emergence
Source text: as §2, §3

giant foxtail [6] = assay: Test C postemergence; assay type: in vivo, Setaria faberii; settings: Setaria faberi, post-emergence
Source text: as §2, §3

johnsongrass = assay: Test C postemergence; assay type: in vivo, Sorghum halepense; settings: Sorghum halepense, post-emergence
Source text: as §2, §3

yellow nutsedge = assay: Test C postemergence; assay type: in vivo, Cyperus esculentus; settings: Cyperus, post-emergence
Source text: as §2, §3

wild oat = assay: Test C postemergence; assay type: in vivo, Avena fatua; settings: Avena fatua, post-emergence
Source text: as §2, §3

chickweed = assay: Test C postemergence; assay type: in vivo, Stellaria media; settings: Stellaria media, post-emergence
Source text: as §2, §3

[7] = 125 g ai/ha, 0 to 100 scale where 0 is no effect and 100 is complete control
[8] = 500 g ai/ha, 0 to 100 scale, 0 no effect, 100 complete control, approx. 10 days

Clc1cnn(-c2ccccc2Oc2ncc(Br)cn2)c1 [Compound 5, 5-bromo-2-[2-(4-chloro-1H-pyrazol-1-yl)phenoxy]pyrimidine]
pest or weed control at 125 g/ha (large (Lg) crabgrass [1]; [7]): 90% | pest or weed control at 500 g/ha (large (Lg) crabgrass [1]; [8]): 90% | pest or weed control at 125 g/ha (giant foxtail [2]; [7]): 90% | pest or weed control at 500 g/ha (giant foxtail [2]; [8]): 100% | pest or weed control at 125 g/ha (morningglory [3]; [7]): 0% | pest or weed control at 500 g/ha (morningglory [3]; [8]): 20% | pest or weed control at 125 g/ha (velvetleaf; [7]): 90% | pest or weed control at 500 g/ha (velvetleaf; [8]): 100% | pest or weed control at 125 g/ha (morningglory [4]; 125 g ai/ha, 0 to 100 scale where 0 is no effect and 100 is complete control, read-out: Plant response rating, Morningglory): 80% | pest or weed control at 500 g/ha (morningglory [4]; 500 g ai/ha, 0 to 100 scale, 0 no effect, 100 complete control, read-out: Plant response rating Morningglory): 90% | pest or weed control at 125 g/ha (blackgrass; 125 g ai/ha, postemergence, read-out: Plant response rating (0 to 100), Blackgrass): 20% | pest or weed control at 250 g/ha (blackgrass; 250 g ai/ha, postemergence, read-out: Plant response rating (0 to 100), Blackgrass): 45% | pest or weed control at 31 g/ha (blackgrass; Postemergence, 31 g ai/ha, scale 0 to 100 (0 no effect, 100 complete control), 13 to 15 days, read-out: Plant response rating, Blackgrass): 0% | pest or weed control at 62 g/ha (blackgrass; Postemergence, 62 g ai/ha, scale 0 to 100 (0 no effect, 100 complete control), read-out: Plant response rating, Blackgrass): 5% | pest or weed control at 125 g/ha (Italian ryegrass; 125 g ai/ha, postemergence, read-out: Plant response rating (0 to 100), Ryegrass, Italian): 10% | pest or weed control at 250 g/ha (Italian ryegrass; 250 g ai/ha, postemergence, read-out: Plant response rating (0 to 100), Ryegrass, Italian): 25% | pest or weed control at 31 g/ha (Italian ryegrass; Postemergence, 31 g ai/ha, scale 0 to 100 (0 no effect, 100 complete control), 13 to 15 days, read-out: Plant response rating, Ryegrass, Italian): 0% | pest or weed control at 62 g/ha (Italian ryegrass; Postemergence, 62 g ai/ha, scale 0 to 100 (0 no effect, 100 complete control), read-out: Plant response rating, Ryegrass, Italian): 5% | plant injury at 125 g/ha (corn; 125 g ai/ha, postemergence, read-out: Plant response rating (0 to 100), Corn): 60% | plant injury at 250 g/ha (corn; 250 g ai/ha, postemergence, read-out: Plant response rating (0 to 100), Corn): 70% | Corn plant response rating (crop injury, 0 = no effect, 100 = complete kill) at 31 g/ha (corn; Postemergence, 31 g ai/ha, scale 0 to 100 (0 no effect, 100 complete control), 13 to 15 days): 15% | Corn plant response rating (crop injury, 0 = no effect, 100 = complete kill) at 62 g/ha (corn; Postemergence, 62 g ai/ha, scale 0 to 100 (0 no effect, 100 complete control)): 20% | pest or weed control at 125 g/ha (large (Lg) crabgrass [5]; 125 g ai/ha, postemergence, read-out: Plant response rating (0 to 100), Crabgrass, Large): 20% | pest or weed control at 250 g/ha (large (Lg) crabgrass [5]; 250 g ai/ha, postemergence, read-out: Plant response rating (0 to 100), Crabgrass, Large): 20% | pest or weed control at 31 g/ha (large (Lg) crabgrass [5]; Postemergence, 31 g ai/ha, scale 0 to 100 (0 no effect, 100 complete control), 13 to 15 days, read-out: Plant response rating, Crabgrass, Large): 5% | pest or weed control at 62 g/ha (large (Lg) crabgrass [5]; Postemergence, 62 g ai/ha, scale 0 to 100 (0 no effect, 100 complete control), read-out: Plant response rating, Crabgrass, Large): 15% | pest or weed control at 125 g/ha (giant foxtail [6]; 125 g ai/ha, postemergence, read-out: Plant response rating (0 to 100), Foxtail, Giant): 5% | pest or weed control at 250 g/ha (giant foxtail [6]; 250 g ai/ha, postemergence, read-out: Plant response rating (0 to 100), Foxtail, Giant): 10% | pest or weed control at 31 g/ha (giant foxtail [6]; Postemergence, 31 g ai/ha, scale 0 to 100 (0 no effect, 100 complete control), 13 to 15 days, read-out: Plant response rating, Foxtail, Giant): 5% | pest or weed control at 62 g/ha (giant foxtail [6]; Postemergence, 62 g ai/ha, scale 0 to 100 (0 no effect, 100 complete control), read-out: Plant response rating, Foxtail, Giant): 5% | pest or weed control at 125 g/ha (johnsongrass; 125 g ai/ha, postemergence, read-out: Plant response rating (0 to 100), Johnsongrass): 5% | pest or weed control at 250 g/ha (johnsongrass; 250 g ai/ha, postemergence, read-out: Plant response rating (0 to 100), Johnsongrass): 10% | pest or weed control at 31 g/ha (johnsongrass; Postemergence, 31 g ai/ha, scale 0 to 100 (0 no effect, 100 complete control), 13 to 15 days, read-out: Plant response rating, Johnsongrass): 5% | pest or weed control at 62 g/ha (johnsongrass; Postemergence, 62 g ai/ha, scale 0 to 100 (0 no effect, 100 complete control), read-out: Plant response rating, Johnsongrass): 5% | pest or weed control at 125 g/ha (yellow nutsedge; 125 g ai/ha, postemergence, read-out: Plant response rating (0 to 100), Nutsedge, Yellow): 15% | pest or weed control at 250 g/ha (yellow nutsedge; 250 g ai/ha, postemergence, read-out: Plant response rating (0 to 100), Nutsedge, Yellow): 15% | pest or weed control at 31 g/ha (yellow nutsedge; Postemergence, 31 g ai/ha, scale 0 to 100 (0 no effect, 100 complete control), 13 to 15 days, read-out: Plant response rating, Nutsedge, Yellow): 5% | pest or weed control at 62 g/ha (yellow nutsedge; Postemergence, 62 g ai/ha, scale 0 to 100 (0 no effect, 100 complete control), read-out: Plant response rating, Nutsedge, Yellow): 5% | pest or weed control at 125 g/ha (wild oat; 125 g ai/ha, postemergence, read-out: Plant response rating (0 to 100), Oat, Wild): 10% | pest or weed control at 250 g/ha (wild oat; 250 g ai/ha, postemergence, read-out: Plant response rating (0 to 100), Oat, Wild): 30% | pest or weed control at 31 g/ha (wild oat; Postemergence, 31 g ai/ha, scale 0 to 100 (0 no effect, 100 complete control), 13 to 15 days, read-out: Plant response rating, Oat, Wild): 0% | pest or weed control at 62 g/ha (wild oat; Postemergence, 62 g ai/ha, scale 0 to 100 (0 no effect, 100 complete control), read-out: Plant response rating, Oat, Wild): 5% | pest or weed control at 250 g/ha (chickweed; 250 g ai/ha, postemergence, read-out: Plant response rating (0 to 100), Chickweed): 45% | pest or weed control at 31 g/ha (chickweed; Postemergence, 31 g ai/ha, scale 0 to 100 (0 no effect, 100 complete control), 13 to 15 days, read-out: Plant response rating, Chickweed): 5% | pest or weed control at 62 g/ha (chickweed; Postemergence, 62 g ai/ha, scale 0 to 100 (0 no effect, 100 complete control), read-out: Plant response rating, Chickweed): 15%
